Laboratory results: paper PMC8302598, “Rapid discovery of self-assembling peptides with one-bead one-compound peptide library” (Nature Communications, 2021)
Entries after “also recorded” stand apart in the source; their conditions may differ.

What was measured:
Format in all cases: physicochemical
[1] = Fluorescent-activation screening assay on OBOC beads (NBD); conditions: for Fluorescence (beads): peptide N-terminally capped with NBD on TentaGel S beads, in water, fluorescence microscope; for Bead fluorescence in methanol: NBD N-capped peptide on TentaGel S beads, 20 min
Text: It is well known that Aβ16–20 peptide sequence KLVFF can self-assemble into nanofibers in water. We, therefore, chose it as a model peptide to test our screening strategy and used KAAGG as the non-assembling negative control. These control peptides, N-terminally capped with NBD were synthesized with standard Fmoc-chemistry, and TentaGel S resin beads as solid support but without any cleavable linker. After side-chain deprotection, the beads were thoroughly washed with DMF, which was replaced stepwise with water or methanol and then examined under a fluorescent microscope. […] This is expected as the hydrophobicity-sensitive fluorescence dye NBD would fluoresce brightly under hydrophobic condition, in this case, methanol. In water, we expect fluorescent signal emitted from non-sequestered NBD to diminish, unless it is buried inside a hydrophobic environment such as within peptide aggregates or β-sheets formed by KLVFF peptides.
(§1) Once the screening method has been validated with our model KLVFF peptide, a totally random pentapeptide library with 19[5] permutations (cysteine was omitted from the library) was constructed using our previously published methods (Supplementary Fig. 3)[23]. Again, TentaGel S resin (loading of 0.31 mmol/g) was used as the solid support. The pentapeptides in the library were N-terminally capped with NBD. […] The positive bead with an intense fluorescent signal (pointed with a solid arrow) was noted. The rest of the beads were considered negative or weak positive beads. From a total of approximately 100 000 beads screened, we selected a total of eight strongest fluorescent positive beads and four dark beads as negative beads. The peptides were then resynthesized in soluble form and purified by high-performance liquid chromatography (HPLC) for testing (Supplementary Figs. 4–12). The amino acid sequences of the eight self-assembling pentapeptides are FTISD, ITSVV, YFTEF, ISDNL, LDFPI, FAGFT, FGFDP, and FFVDF. Not unexpectedly, of the 40 amino acids in these eight pentapeptides, 50% are hydrophobic residues, predominated by Phe (11 Phe, 4 Ile, 3 Val, and 2 Leu). For the remaining 20 amino acids, six are acidic residues (5 Asp and 1 Glu) and seven are neutral and hydrophilic (4 Thr and 3 Ser). The rest are 2 Pro, 2 Gly, 1 Tyr, 1 Asn, and 1 Ala. All eight peptides have at least two hydrophobic residues. Six out of the eight peptides have one negatively charged residue (Asp or Glu). The remaining two peptides are neutral. […] For the Pro containing pentapeptides, LDFPI and FGFDP, the Pro residue, which promotes peptide turns, resides at the fourth and fifth positions, but not in the middle. Not unexpectedly, all the four randomly selected negative non-assembling peptides (RITTR, PLVKA, PFTTR, and QIMRW) have very different sequences, and contain at least one positive charged amino acid.
The OBOC pentapeptide libraries (19[5]) were built using Fmoc strategy SPPS (solid-phase peptide synthesis) (Supplementary Fig. 3). TentaGel S Resin (named N-beads with loading 0.31 mmol/g) was used as the solid phase support. The pentapeptide sequence of X1 X2 X3 X4 X5 was constructed in the library, in which X1−X5 represents either Ala, Asp, Glu, Phe, Gly, His, Ile, Lys, Leu, Met, Asn, Pro, Gln, Arg, Ser, Thr, Val, Trp, and Tyr residues. During the synthesis of OBOC library, solid support beads were mixed and split equally in each cycle, then different amino acids were added, separately, the process was repeated four times. The synthesis of peptides was used anhydrous DMF as solvent. The Fmoc group was removed by 20% (v/v) piperidine in DMF and the deprotection time was 10 min twice. During the coupling step, the HBTU (4 mM) and Fmoc-amino acid (4 mM) were dissolved in DMF containing NMM (0.4 mM). The coupling time was 50 min. Qualitative Fmoc deprotection and coupling were confirmed by ninhydrin test. All the above experiments were carried out in the solid phase peptide synthesis vessels with sieves in it. […]

[2] = TEM morphology and size of peptide nano-assemblies over time; conditions: same peptide preparation in water with 1% DMSO
Text: Self-assembling peptides with good biocompatibility may be used to construct nanocarriers for drug delivery. We recently reported the use of FFVLK, the reverse sequence of KLVFF, as a self-aggregating β-sheet forming domain for the delivery of HER2 targeting peptides for successful treatment of breast cancer in xenograft models. Such FFVLK containing peptide is able to self-assemble into nanoparticles. Upon intravenous administration, the FFVLK-nanoparticle was able to transform into nanofibrillar network when encountering HER2 at the tumor sites. To investigate the morphology of the nano-assembly formed by the eight self-assembling peptides, we dissolved each of these peptides in DMSO (5 mM) and then diluted them 100X with water at a final peptide concentration of 50 μM to induce spontaneous self-assembly. Each sample was fixed immediately after peptide solution preparation and at 4 h time point for subsequent TEM processing and analysis. As clearly shown in Fig. 4a, all eight self-assembling peptides initially formed some nanostructures: nanoparticles for ITSVV, YFTEF, ISDNL, LDFPI, FAGFT, FGFDP, and FTISD; nanofibers for FFVDF. […] LDFPI (8 nm) maintained the particulate morphology without changing of diameter in 4 h. FFVDF formed nanofibers at 0 and 4 h. […] Time-dependent size variations of pentapeptides in water were further confirmed by DLS spectra (Supplementary Fig. 18). The initial diameters of nanoparticles formed by seven pentapeptides were larger than that observed by TEM, probably due to hydration radius. The size of the nanostructure increased over time, correlating well with the morphologic transformation. […] Circular dichroism (CD) was used to monitor the secondary structures of the nano-assembly of the eight self-assembling peptides over time (Supplementary Fig. 20).
(§2) Pentapeptides monomers were dissolved in DMSO at a concentration of 5.0 mM, followed by quick injection into water at a volume ratio of 1:99 for DMSO and H2O to obtain the nanomaterials solution (50 μM). For 30 mM pentapeptide solution, the pentapeptide was dissolved in water and sonicated for 3 min.
(§3) The pentapeptide solution with the concentration of 20 μM (10 μL) was placed dropwise onto a copper mesh for 5 min, then most of the liquid was removed through a filter paper. Ten microliters of uranyl acetate solution were employed to stain the samples for 5 min, followed by drying the spare liquid with the filter. Finally, the copper mesh was washed with 10 μL of deionized water, which was blotted after staining and drying at room temperature. All of the samples were observed by TEM (Tecnai G2 20 S-TWIN) at an accelerating voltage of 200 kV.

[3] = Self-assembly of resynthesized soluble pentapeptides; conditions: self-assembly under aqueous environment
Text: as §1
To estimate the propensity of the identified peptides to self-assemble, the critical micelle concentrations (CMC) of the eight positive peptides and four negative peptides were determined, and the results are shown in Table 1 and Supplementary Figs. 13, 14. The CMC of all the eight positive peptides were detectable and found to range between 8.4 and 14.8 μM, indicating the propensity for these peptides to self-assemble under aqueous environment. […] Hydrophobicity of peptides can be predicted by the value of GRAVY[28] with more negative value for more hydrophilic peptides. Of the four negative assembling peptides, two have a negative GRAVY value. […] Experimental testing, such as the screening strategy described in this work, is needed. This is because multiple factors, including hydrophobicity, hydrogen-bonding, electrostatic interactions, and positions of each residue within the peptides, all contribute to the assembling and final morphology of the self-assembled nano-structure. […]

[4] = Fluorescent-activation screening assay on OBOC beads (NBD); conditions: peptide beads incubated with free dye in water for 2 hours
[5] = Appearance and TEM of 30 mM peptide in water
Procedure: To further characterize these self-assembling peptides, we selected two positive peptides (FFVDF and YFTEF) and a negative control peptide (PFTTR) for the following studies: Fourier transform infrared (FT-IR) spectroscopy, UV−Vis spectra, and transmission electron microscopy (TEM).
as §2, §3

[6] = Turbidity test (transmittance spectra); conditions: 20 μM peptide in water
Procedure: To further confirm the peptide assembling in water, the solutions of pentapeptide were diluted to 20 μM for turbidity test.

Row | Nanostructures detected by TEM (negative controls) [2] | Assembly [3] | Substance | Fluorescence (beads) [1] | also measured
1 |  |  | (NBD)-NFGAIL-beads [additional positive control NFGAIL N-capped with NBD on beads, reference compound] | fluorescence-on | 
2 | no nanostructures were detected | No | QIMRW [randomly selected negative non-assembling pentapeptide] | Off | 
3 |  |  | (NBD)-LIVGD-beads [additional positive control LIVGD N-capped with NBD on beads, reference compound] | fluorescence-on | 
4 |  |  | (NBD)-KAAGG-beads [non-assembling negative control KAAGG N-terminally capped with NBD on TentaGel S resin beads, reference compound] | did not | Bead fluorescence in methanol [1]: bright fluorescence
5 |  |  | KAAGG-beads [negative control peptide KAAGG on beads, probed with free reporter dye] |  | Bead fluorescence with free dye (ThT, Nile Red or NBD) [4]: fluorescent off
6 | no nanostructures were detected | No | PFTTR [randomly selected negative non-assembling pentapeptide] | Off | Nanostructure under TEM ([5]; 30 mM in H2O): no nanostructures observed; Appearance of peptide in water ([5]; 30 mM in water, sonicated 3 min): completely clear solution; Transmittance at 400 nm [6]: 100%
7 | no nanostructures were detected | No | RITWI [randomly selected negative non-assembling pentapeptide] | Off | 
8 |  |  | (NBD)-KLVFF-beads [positive control: Aβ16–20 peptide KLVFF N-terminally capped with NBD on TentaGel S resin beads, reference compound] | fluoresced brightly; also recorded: fluorescence-on | Bead fluorescence in methanol [1]: bright fluorescence
9 | no nanostructures were detected | No | PLVKA [randomly selected negative non-assembling pentapeptide] | Off | 
